Values joined by “and” are separate entries in the source; they are usually repeats but may differ in a detail not shown here. Equal values may be shown once. Toxic doses and inconclusive results are not listed. The calls were made as follows: active = survival T/C of 150% or more; inactive = T/C below 125% in these data.
Test system: P388 leukemia ip, CD2F1 mice, survival T/C
Test: NCI In Vivo Anticancer Drug Screen. Data for tumor model P388 Leukemia (intraperitoneal) in CD2F1 (CDF1) mice
Settings: endpoint: median survival time, higher = longer survival
Procedure, shortened: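 Mice carrying the transplanted tumor received test compound or vehicle. Survival was recorded in each group, and the value is the treated-group measurement divided by that of the vehicle-treated control group.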

[1] = dose: 60.0 mg/kg/injection, schedule: Q01DX005 (ip), vehicle: saline with Tween-80
[2] = dose: 120.0 mg/kg/injection, schedule: Q01DX005 (ip), vehicle: saline with Tween-80
[3] = dose: 50.0 mg/kg/injection, schedule: Q01DX005 (ip), vehicle: saline with Tween-80
[4] = dose: 100.0 mg/kg/injection, schedule: Q01DX005 (ip), vehicle: saline with Tween-80
[5] = dose: 25.0 mg/kg/injection, schedule: Q01DX009 (ip), vehicle: Klucel (hydroxypropylcellulose) (HPC)
[6] = dose: 50.0 mg/kg/injection, schedule: Q01DX009 (ip), vehicle: Klucel (hydroxypropylcellulose) (HPC)
[7] = dose: 100.0 mg/kg/injection, schedule: Q01DX009 (ip), vehicle: Klucel (hydroxypropylcellulose) (HPC)
[8] = dose: 100.0 mg/kg/injection, schedule: Q01DX009 (ip), vehicle: distilled water + Tween-80
[9] = dose: 200.0 mg/kg/injection, schedule: Q01DX009 (ip), vehicle: Klucel (hydroxypropylcellulose) (HPC)
[10] = dose: 200.0 mg/kg/injection, schedule: Q01DX009 (ip), vehicle: distilled water + Tween-80
[11] = dose: 400.0 mg/kg/injection, schedule: Q01DX009 (ip), vehicle: distilled water + Tween-80
[12] = dose: 50.0 mg/kg/injection, schedule: Q01DX009 (ip), vehicle: suspension in saline
[13] = dose: 100.0 mg/kg/injection, schedule: Q01DX009 (ip), vehicle: suspension in saline
[14] = dose: 200.0 mg/kg/injection, schedule: Q01DX009 (ip), vehicle: suspension in saline
[15] = dose: 50.0 mg/kg/injection, schedule: Q01DX009 (ip), vehicle: saline
[16] = dose: 100.0 mg/kg/injection, schedule: Q01DX009 (ip), vehicle: saline
[17] = dose: 50.0 mg/kg/injection, schedule: Q01DX009 (ip), vehicle: saline with Tween-80
[18] = dose: 100.0 mg/kg/injection, schedule: Q01DX009 (ip), vehicle: saline with Tween-80
[19] = dose: 200.0 mg/kg/injection, schedule: Q01DX009 (ip), vehicle: saline with Tween-80
[20] = dose: 200.0 mg/kg/injection, schedule: Q01DX009 (ip), vehicle: saline
[21] = dose: 240.0 mg/kg/injection, schedule: Q01DX005 (ip), vehicle: saline with Tween-80
[22] = dose: 400.0 mg/kg/injection, schedule: Q01DX009 (ip), vehicle: saline with Tween-80

Measured: T/C

CCc1cccc(CC)c1NC(=O)NN(CC)CC
inactive: [1] 93 % of control | [2] 103 % of control

C[C@H]1C[C@H](c2ccccc2)[C@@H](c2ccccc2)C(=O)O1
inactive: dose: 100.0 mg/kg/injection, schedule: Q04DX003 (ip), vehicle: Klucel (hydroxypropylcellulose) (HPC) 93 % of control | dose: 200.0 mg/kg/injection, schedule: Q04DX003 (ip), vehicle: Klucel (hydroxypropylcellulose) (HPC) 92 % of control | dose: 400.0 mg/kg/injection, schedule: Q04DX003 (ip), vehicle: Klucel (hydroxypropylcellulose) (HPC) 92 % of control

Nc1ccc(N=Nc2ccncc2)c2ccccc12
inactive: [3] 100 % of control | [4] 100 % of control

CCCCCCCCCC(O)CCCCCCCCC
inactive: dose: 100.0 mg/kg/injection, schedule: Q04DX003 (ip), vehicle: other 100 % of control | dose: 200.0 mg/kg/injection, schedule: Q04DX003 (ip), vehicle: other 90 % of control | dose: 400.0 mg/kg/injection, schedule: Q04DX003 (ip), vehicle: other 90 % of control

O=c1[nH]cc([N+](=O)[O-])c(=O)[nH]1
inactive: [5] 94 % of control | [6] 99 % of control | [7] 95 % of control | [8] 102 % of control | [9] 107 % of control | [10] 100 % of control | [11] 99 % of control

CN(CCO)C1=CC(=O)C(N2c3ccccc3Nc3cc(O)c(N(C)CCO)cc32)=CC1=O
inactive: [12] 101 % of control | [13] 99 % of control | [14] 105 % of control

OCC(COCCCCCCCCCCCC1C=CCC1)OCCCCCCCCCCCC1C=CCC1 (stereo not drawn)
inactive: dose: 100.0 mg/kg/injection, schedule: Q04DX003 (ip), vehicle: saline 101 % of control | dose: 200.0 mg/kg/injection, schedule: Q04DX003 (ip), vehicle: saline 104 % of control | dose: 400.0 mg/kg/injection, schedule: Q04DX003 (ip), vehicle: saline 104 % of control

C[CH](C)[GeH]([CH](C)C)[CH](C)C
inactive: [15] 91 % of control | [16] 91 % of control

C=NN(C)C
inactive: dose: 2.39 mg/kg/injection, schedule: Q01DX009 (ip), vehicle: Klucel (hydroxypropylcellulose) (HPC) 95 % of control | dose: 4.75 mg/kg/injection, schedule: Q01DX009 (ip), vehicle: Klucel (hydroxypropylcellulose) (HPC) 102 % of control | dose: 9.5 mg/kg/injection, schedule: Q01DX009 (ip), vehicle: Klucel (hydroxypropylcellulose) (HPC) 103 % of control | dose: 19.0 mg/kg/injection, schedule: Q01DX009 (ip), vehicle: Klucel (hydroxypropylcellulose) (HPC) 105 % of control

O=S(=O)(O)O.O=S(=O)([O-])[O-].O=[N+]([O-])O.[Co+3].[Co+3].[NH2-].[NH2-].[NH2-].[NH2-].[NH2-].[NH2-].[NH2-].[NH2-].[NH2-]
inactive: dose: 1.0 mg/kg/injection, schedule: Q01DX009 (ip), vehicle: saline 98 % of control | dose: 2.0 mg/kg/injection, schedule: Q01DX009 (ip), vehicle: saline 93 % of control

Nc1ccc(-c2csc(-c3ccc(Br)cc3)n2)cc1
inactive: dose: 12.5 mg/kg/injection, schedule: Q01DX009 (ip), vehicle: Klucel (hydroxypropylcellulose) (HPC) 100 % of control | [5] 91 % of control | [6] 88 % of control

COc1cc2c(cc1O)C(CSC)Cc1cc(OC)c(OC)cc1N(C)CC2 (stereo not drawn)
inactive: [17] 104 % of control | [18] 101 % of control | [19] 109 % of control

CSCC(=O)O
inactive: [15] 106 % of control | [16] 106 % of control | [20] 97 % of control

O=C(Nc1ccccc1)NC1CCCCCC1
inactive: [15] 93 % of control | [16] 98 % of control | [20] 87 % of control

Cc1cc([N+](=O)[O-])c(Cl)cc1NS(=O)(=O)c1ccccc1
inactive: dose: 50.0 mg/kg/injection, schedule: Q04DX003 (ip), vehicle: saline with Tween-80 100 % of control | dose: 100.0 mg/kg/injection, schedule: Q04DX003 (ip), vehicle: saline with Tween-80 95 % of control

c1cc2c(cc1CN1CCOCC1)CCc1cc(CN3CCOCC3)ccc1N2
inactive: dose: 15.0 mg/kg/injection, schedule: Q01DX005 (ip), vehicle: Klucel (hydroxypropylcellulose) (HPC) 101 % of control | dose: 30.0 mg/kg/injection, schedule: Q01DX005 (ip), vehicle: Klucel (hydroxypropylcellulose) (HPC) 100 % of control | dose: 60.0 mg/kg/injection, schedule: Q01DX005 (ip), vehicle: Klucel (hydroxypropylcellulose) (HPC) 94 % of control and 95 % of control

Cc1cc(C)nc(NS(=O)(=O)c2ccc(Nc3c4ccccc4nc4ncccc34)cc2)n1
inactive: [1] 97 % of control | [2] 90 % of control | [21] 90 % of control

NOCc1ccccc1CON
inactive: dose: 37.5 mg/kg/injection, schedule: Q01DX009 (ip), vehicle: saline with Tween-80 86 % of control | dose: 75.0 mg/kg/injection, schedule: Q01DX009 (ip), vehicle: saline with Tween-80 91 % of control | dose: 150.0 mg/kg/injection, schedule: Q01DX009 (ip), vehicle: saline with Tween-80 104 % of control

Cc1cc(Cl)nc2nc(Cl)ccc12
inactive: [3] 101 % of control | [4] 93 % of control

CSc1ccccc1P(c1ccccc1)c1ccccc1SC
inactive: [6] 90 % of control | [7] 91 % of control | [9] 91 % of control

Cc1ccc(S(=O)(=O)/C=C/c2ccc([N+](=O)[O-])o2)cc1
inactive: [12] 108 % of control | [13] 104 % of control | [14] 104 % of control

O=C(/C=C/c1ccccc1)N1CCCCC1
inactive: [18] 90 % of control | [19] 95 % of control | [22] 95 % of control

ClCC1(CCl)COC(c2ccccc2)OC1
inactive: [18] 100 % of control | [19] 100 % of control | [22] 95 % of control

CCCCCCCCCCCCCCCCOc1ccc(OC)cc1C(=O)NNC(=S)SC
inactive: dose: 50.0 mg/kg/injection, schedule: Q01DX009 (ip), vehicle: saline + alcohol 100 % of control | dose: 100.0 mg/kg/injection, schedule: Q01DX009 (ip), vehicle: saline + alcohol 103 % of control | dose: 200.0 mg/kg/injection, schedule: Q01DX009 (ip), vehicle: saline + alcohol 87 % of control

O=C(Oc1ccc[nH]c1=O)c1cccc(Cl)c1
inactive: dose: 25.0 mg/kg/injection, schedule: Q01DX009 (ip), vehicle: distilled water + Tween-80 100 % of control | dose: 50.0 mg/kg/injection, schedule: Q01DX009 (ip), vehicle: distilled water + Tween-80 100 % of control | [8] 95 % of control | [10] 99 % of control | [11] 97 % of control

CCC(C)C(=O)/C=C/c1ccc(Cl)c(Cl)c1 (stereo not drawn)
inactive: [17] 99 % of control | [18] 99 % of control | [19] 99 % of control

COc1ccc(/C=C2\CCN=C2c2ccccc2)cc1OC
inactive: dose: 50.0 mg/kg/injection, schedule: Q01DX005 (ip), vehicle: Klucel (hydroxypropylcellulose) (HPC) 101 % of control | dose: 100.0 mg/kg/injection, schedule: Q01DX005 (ip), vehicle: Klucel (hydroxypropylcellulose) (HPC) 97 % of control | dose: 200.0 mg/kg/injection, schedule: Q01DX005 (ip), vehicle: Klucel (hydroxypropylcellulose) (HPC) 96 % of control

O/N=C(/Cc1nc2cc(Cl)c(Cl)cc2nc1C/C(=N/O)c1cccnc1)c1cccnc1
inactive: [1] 102 % of control | [2] 107 % of control | [21] 107 % of control

CN(C)c1ccc(N2C(N)=NC(N)=NC2(C)C)cc1
inactive: dose: 15.0 mg/kg/injection, schedule: Q01DX005 (ip), vehicle: saline 94 % of control | dose: 30.0 mg/kg/injection, schedule: Q01DX005 (ip), vehicle: saline 95 % of control | dose: 60.0 mg/kg/injection, schedule: Q01DX005 (ip), vehicle: saline 98 % of control and 95 % of control
